Common to all, as to assay: NCI tumour cell line growth inhibition, 48 h
Test [1] relates to HT29 colon.
For test [2], the system named is SNB-19 CNS.
Test [3] has as its system UO-31 renal.
The test system of test [4] is SNB-75 CNS.
Test [5] deals with M14 melanoma.
In test [6] the test system is TK-10 renal.
Test [7] concerns RXF 393 renal.
Test [8] deals with SK-MEL-28 melanoma.
Test [9] concerns UACC-257 melanoma.
In test [10] the test system is UACC-62 melanoma.

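Compound exposure: 48 hours, 5 concentrations, 96-well plates. GI50 is the concentration that inhibits growth by half. TGI: concentration producing complete growth inhibition.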

For the molecule `COc1ccccc1-c1c(C)nn2c(NCc3ccccn3)cc(C)nc12`, the GI50 in [1] was 7.31 µM; in test [2] it was greater than 50 µM; in test [3], 10.2 µM; in test [4], greater than 50 µM; in [5], 24.7 µM; in test [6], greater than 25.6 µM. The GI50 in test [7] was 33.5 µM; in test [8], greater than 36.9 µM; in test [9], 11.2 µM; in [10], 16.9 µM. For the same molecule, the TGI in [1], in [2], in test [3], in [4], in [5] and in [6] was greater than 50 µM in each case. The TGI in test [7], in test [8], in test [9] and in [10] was greater than 50 µM each time.

On to `O=C1c2ccccc2C(=O)C1C(c1ccc([N+](=O)[O-])cc1)C1C(=O)c2ccccc2C1=O`, for which the TGI in [1], in [2], in test [3], in [4], in test [5] and in test [6] was greater than 100 µM in each case. In addition, the TGI in test [7] was 32.9 µM; in test [8] it was 93.6 µM; in test [9], greater than 100 µM; in test [10] it was greater than 100 µM.

As to `CC(=O)NC(CCCN(Cc1ccccc1)C(=O)N(CCCl)N=O)C(=O)NCc1ccccc1` (stereo not given), the TGI in test [1] was greater than 100 µM; in test [2] it was greater than 100 µM; in test [3], greater than 100 µM; in test [4], 63.9 µM; in [5] it was greater than 100 µM; in [6], greater than 100 µM. Further, the TGI was 68.9 µM in test [7], greater than 100 µM in test [8], greater than 100 µM in [9] and greater than 100 µM in test [10].

With `COc1ccc(-c2ccc(/C=N/n3c(COc4ccc(Cl)cc4)n[nH]c3=S)o2)c([N+](=O)[O-])c1`, the GI50 is 21.1 µM in test [1]; 20.1 µM in [2]; 33.5 µM in [3]; 37.4 µM in test [4]; 32.7 µM in test [5]; 14.6 µM in [6]. In addition, the GI50 is 12.7 µM in test [7], 17.3 µM in test [8], 15.9 µM in test [9] and 17.8 µM in test [10]. The TGI is 50.9 µM in test [1]; 53.6 µM in [2]; greater than 100 µM in test [3]; greater than 100 µM in test [4]; greater than 100 µM in test [5]; 37.1 µM in [6]. Moreover, the TGI in test [7] was 32.3 µM; in test [8], greater than 100 µM; in [9], 51.4 µM; in test [10] it was 51.7 µM.

For `C=C[C@]1(C)C=C2C(=O)[C@@]3(O)OC[C@@]4(CCCC(C)(C)C43O)C2(O)C(O)C1` (stereo not given in full), the GI50 in [1] is 1.46 µM; in test [2] it was 23.3 µM; in [3] it was 1.34 µM; in test [4] it was 3.51 µM; in test [5] it was 1.55 µM; in test [6] it was 1.56 µM. Besides, the GI50 was 1.62 µM in test [7], 4.26 µM in test [8], 2.06 µM in test [9] and 7.77 µM in test [10]. Moreover, the TGI in test [1] was greater than 21.5 µM; in [2], greater than 69 µM; in [3], 3 µM; in test [4] it was 14 µM; in test [5], 3.01 µM; in test [6], 3.03 µM. Also, the TGI in test [7] was 3.48 µM; in [8], 15.6 µM; in test [9] it was 4.21 µM; in test [10] it was 21.5 µM.

For the molecule `O=[N+]([O-])c1ccc(CS(=O)Cc2ccccc2)cc1` (stereo not given), the TGI in test [1], in test [2], in [3], in [4], in test [5] and in test [6] was greater than 100 µM throughout. The TGI in test [7], in test [8], in test [9] and in test [10] was greater than 100 µM in each case.

For `COC(=O)C(Cc1nc2ccc(Cl)cc2[nH]c1=O)C(=O)C(=O)Nc1ccccc1[N+](=O)[O-]` (stereo not given), the TGI in test [1], in test [2], in [3], in [4], in test [5] and in test [6] was greater than 100 µM each time. Besides, the TGI in test [7], in test [8], in test [9] and in [10] was greater than 100 µM each time.

With `CCOC(=O)c1c(C)n(Cc2ccc(Cl)cc2Cl)c2c1cc1oc(=O)c(=O)n3c(Cc4ccccc4)nc2c13`, the GI50 in test [1] was 4.65 µM; in test [2], 6.12 µM; in test [3] it was 3.77 µM; in [4], 10.1 µM; in [5], 13 µM; in test [6] it was 2.64 µM. Also, the GI50 is 2.98 µM in test [7], 11 µM in test [8], 17.3 µM in [9] and 14.5 µM in [10]. Moreover, the TGI in [1] came out at 17.4 µM; in test [2] it was 20.9 µM; in [3], 15 µM; in test [4], 27.7 µM; in test [5] it was 36.7 µM; in [6], 6.95 µM. Further, the TGI was found to be 7.34 µM in [7], 24.9 µM in [8], 36.3 µM in test [9] and 28.2 µM in test [10].

For the molecule `CCCCC[C@H]1C/C=C2/C(=O)C(Cl)=C[C@@H]2C/C=C\CCCC(=O)O[C@@H](CCCCC)C/C=C2/C(=O)C(Cl)=C[C@@H]2C/C=C\CCCC(=O)O1`, the GI50 in [1] was 0.46 µM; in test [2], 0.549 µM; in [3] it was 0.269 µM; in test [4] it was 0.544 µM; in test [5] it was 0.39 µM; in [6], 0.508 µM. Besides, the GI50 in test [7] was 0.297 µM; in [8], 0.407 µM; in test [9], 0.366 µM; in test [10] it was 0.297 µM. The TGI in test [1] came out at 1.44 µM; in test [2] it was 2.24 µM; in [3], 0.508 µM; in [4] it was 3.89 µM; in [5], 1.07 µM; in [6], 1.6 µM. In addition, the TGI in [7] turned out to be 0.576 µM; in [8] it was 1.01 µM; in [9], 0.932 µM; in test [10], 0.62 µM.

(Values after PubChem BioAssay (NCI).)
